{
  "source": "patent US20080051413A1",
  "about": "“Nitrophenylpiperazine derivative of xanthine which relaxes tracheal airway and increases respiratory performance” (KAOHSIUNG MEDICAL UNIVERSITY, priority 2006, published 2008)",
  "key": {"[1]": {"test_system": "PDE4 purified from human U-937 pronocytic cells", "assay": "Phosphodiesterase activity, PDE4", "type": "biochemical", "settings": "10 _M compound, n = 3", "procedure": "Phosphodiesterase Activity: PDE activity was determined by the method of Nicholson et al. (Nicholson C D, Challiss R A, and Shahid M (1991) Differential modulation of tissue function and therapeutic potential of selective inhibitors of cyclic nucleotide phosphodiesterase isonzymes. Trends Pharmaclo Sci 12:19-27). PDE3 and PDE5 purified from human platelets and PDE4 purified from human U-937 pronocytic cells were used. Test compound (10 _M) or vehicle was incubated with 0.2 _g of enzyme and 1 _M cAMP containing 0.01 _M [^3H]cAMP in Tris buffer, pH 7.5, for 20 min at 25_. The reaction was terminated by boiling for 2 min, and the resulting […] was converted to adenosine by the addition of 10 mg/ml snake venom nucleotidase, which is followed by a further incubation at 37_for 10 min. Unhydrolyzed cAMP was bound to AG1-X2 resin, and the remaining [^3H]adenosine in the aqueous phase was quantitated by scintillation counting."}, "respiratory performance": {"test_system": "respiratory performance", "assay": "Pulmonary function after i.v. injection (RL, Cdyn, tidal volume)", "type": "in vivo", "settings": "1 mg/kg i.v., guinea pig, n = 3", "procedure": "(§1) Animals: Male Dunkin Harley guinea pigs (350-450 g) were provide by the National Laboratory Animal Breeding and Research Center (Taipei, Taiwan) and housed under conditions of constant temperature and controlled illumination. Food and water were available and libitum. The study was approved by the Animal Care and Use Committee of the Kaohsiung Medical University.\n(§2) Pulmonary Function: Guinea pegs (350-450 g) were anesthetized with pentobarbital (40 mg/kg i.p.) and maintained with further i.v. doses of 2 to 5 mg/kg when required according to methods previously described (Wu B N, Lin R J, Lo Y C, Shen K P, Wang C C, Lin Y T, and Chen I J (2004) KMUP-1, a xanthine derivative, induces relaxation of guinea-pig isolated trachea: the role of the epithelium, cyclic nucleotides and K^+ channels, Br J Pharmacol 142:1105-1114). The animal was tethered in a supine position, and the trachea was cannulated below the larynx with a short tracheal cannula via a tracheotomy. Tracheal pressure was measured by a catheter connected to the side arm of the tracheal cannula. The carotid artery and jugular vein were cannulated to monitor blood pressure and heart rate and for drug administration, respectively. Throughout the experiment, the body temperature of the guinea pig was maintained at 37_. Measurements of pulmonary cardiac function were carried out as previously described (Hsu T H, Lai Y L, and Kou Y R (1998) Acetylcholine and tachykinin receptor antagonists attenuate wood smoke-induced bronchoconstriction in Guinea pigs. Eur J Pharmacol 360:175-183). Total lung resistance (RL) and dynamic lung compliance (Cdyn) were measured on a breath-by-breath basis using a computer equipped with an A/D interface (DAS 1600; Buxco Electronics, Inc., Wilmington, N.C.) and software (version 1.5.7; Buxco Electronics, Inc.). Results obtained from the computer analysis were checked for accuracy by comparison with those calculated manually.\nAnimals were allowed to stabilize for 10 min following surgical manipulations before the test agent was administered. Intratracheal instillation was performed using a catheter placed through the tracheal tube into the bronchial system. The catheter connected to a 1-ml syringe was inserted into the trachea cannula extending 1 cm beyond the tip of the cannula for instillation of drug or vehicle. The instillation was followed by rapid intratracheal injection of 0.5 ml of air to facilitate deposition of drug or vehicle into the lungs as in the modified methods of Chung et al. (2001)(Chung W H, Bennett B M, Racz W J, Brien J F, and […] Fischer 344 rats during aminodarone-induced pulmonary fibrosis. Am J Physiol 281:L1180-L1188). The animals were pretreated intratracheally with KMUP-3 (0.5, 1.0, and 2.0 mg/kg/150 _l of saline) or an equivalent volume (150 _l) of vehicle 15 min before TNF-_(0.01 mg/kg/300 _l saline) was instilled to induce acute bronchoconstriction. In another experiments, KMUP-3 or KMUP-1 (1.0 mg/kg i.v.) were used to compare the effects on respiratory performance, indicated by changes of tidal volume, total RL, and Cdyn."}, "[2]": {"test_system": "TNF-_-induced bronchoconstriction", "assay": "TNF-_-induced bronchoconstriction, intratracheal instillation", "type": "in vivo, guinea pig", "procedure": "as §1, §2\nAnimals were allowed to stabilize for 10 min following surgical manipulations before the test agent was administered. […]"}, "[3]": {"settings": "0.5, 1.0, 2.0 mg/kg intratracheal, 15 min prior to TNF-_ (0.01 mg/kg)"}},
  "data": [
    {"smiles": "Cn1c(=O)c2c(ncn2CCN2CCN(c3ccc([N+](=O)[O-])cc3)CC2)n(C)c1=O", "note": "[KMUP-3]", "values": [
      {"measurement": "PDE4 Inhibition", "setting": "[1]", "value": "48 ± 2.1", "unit": "%"},
      {"measurement": "Cdyn, Maximum change of baseline (%)", "setting": "respiratory performance", "value": "50 ± 5.5", "unit": "%"},
      {"measurement": "RL, Maximum change of baseline (%)", "setting": "respiratory performance", "value": "−55 ± 4.5", "unit": "%"},
      {"measurement": "Tidal Volume, Maximum change of baseline (%)", "setting": "respiratory performance", "value": "21.7 ± 0.5", "unit": "%"},
      {"measurement": "effect on Cdyn in TNF-_-induced bronchocontraction (FIG. 2)", "setting": "[2]; [3]", "value": "increasing Cdyn"},
      {"measurement": "effect on RL in TNF-_-induced bronchocontraction (FIG. 2)", "setting": "[2]; [3]", "value": "decreasing RL"},
      {"measurement": "Blood pressure and heart rate", "setting": "[2]; intratracheal instillation, during recording of lung function", "value": "not significantly changed"}
    ]}
  ]
}
